Experimental data from patent publication US20260055083A1, “APOL1 INHIBITORS AND METHODS OF USE” (Maze Therapeutics, Inc., priority 2022, published 2026).

Legend:
[1] = target: T1, APOL1 G2 (Homo sapiens, UniProt O14791, DEL388-389); test: APOL1 G2 FLIPR calcium influx assay (HEK T-REx/GCaMP6f/APOL1 G2 K6.3 cells); assay type: cell-based; settings: HEK293 clone expressing GCaMP6f, doxycycline-induced APOL1 G2; prevention of calcium influx; geometric mean of at least 2 assay runs
T1 construct: expressed in transfected cells; host or cells: HEK293/T-REx APOL1 G2 clone #2, doxycycline-inducible
T1 sequence (O14791 with tags, fused parts or gaps DEL388-389): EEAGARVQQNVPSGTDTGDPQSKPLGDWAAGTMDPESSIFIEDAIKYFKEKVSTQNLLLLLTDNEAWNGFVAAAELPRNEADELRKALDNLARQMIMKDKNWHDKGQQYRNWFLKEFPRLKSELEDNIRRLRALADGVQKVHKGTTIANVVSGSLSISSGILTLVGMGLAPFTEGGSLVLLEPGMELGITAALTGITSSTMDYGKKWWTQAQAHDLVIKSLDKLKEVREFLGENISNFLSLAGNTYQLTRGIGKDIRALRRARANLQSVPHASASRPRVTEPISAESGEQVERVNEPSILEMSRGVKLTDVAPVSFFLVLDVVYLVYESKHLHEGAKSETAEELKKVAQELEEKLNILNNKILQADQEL
How it was run: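 Cells express GCaMP6f stably and APOL1 G2 after a 6 h doxycycline induction. Duplicate 8-point dilutions sit 10 min at room temperature in Ca2+-free Tyrode's (pH 7.4), then Ca2+ is injected to 5 mM final and the FLIPR signal recorded. AC50s are geometric means across ≥2 days.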

[2] = target: T1, APOL1 G2; test: APOL1 G2 HEK293 rescue of cell death caused by overexpression of APOL1 (CellTiter-Glo); assay type: cell-based; settings: HEK293/T-REx APOL1 G2 clone #2, doxycycline induction, 17 hours, CellTiter-Glo luminescence; reversal of cell death; geometric mean of at least 2 assay runs
How it was run: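 Viability read by CellTiter-Glo luminescence after 17 h, 37 °C, in HEK293/T-REx cells expressing APOL1 G2 on 6 ng/mL doxycycline, 5,000 cells/well. Compounds tested as duplicate 8-point, 3-fold dilutions, 0.5% DMSO final; four-parameter logistic EC50, usually geometric mean of ≥2 days.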

Row | Structure (SMILES) | AC50 [1] [µM] | EC50 [2] [µM]
1 | CC(C(O)c1cc(Cl)cc(C#N)c1)N1C[C@@H](COc2ccc(S(C)(=O)=O)cc2)C[C@H]1C (single isomer, unassigned) [Compound 98, 3-chloro-5-[(1R,2S or 1S,2R or 1S,2S or 1R,2R)-1-hydroxy-2-[(2R,4S)-4-[(4-methanesulfonylphenoxy)methyl]-2-methylpyrrolidin-1-yl]propyl]benzonitrile] | 2.84 | > 10
2 | CC(C(O)c1cc(Cl)cc(C#N)c1)N1C[C@@H](COc2ccc(S(C)(=O)=O)cc2)C[C@H]1C (single isomer, unassigned) [Compound 99, 3-chloro-5-[(1S,2R or 1R,2S or 1S,2S or 1R,2R)-1-hydroxy-2-[(2R,4S)-4-[(4-methanesulfonylphenoxy)methyl]-2-methylpyrrolidin-1-yl]propyl]benzonitrile] | 1.69 | 0.252
3 | CC(C(O)c1cc(Cl)cc(C#N)c1)N1C[C@@H](COc2ccc(S(C)(=O)=O)cc2)[C@H](C)C1 (single isomer, unassigned) [Compound 100, 3-chloro-5-((1R,2S or 1S,2R)-1-hydroxy-2-((3S,4S)-3-methyl-4-((4-(methylsulfonyl)phenoxy)methyl)pyrrolidin-1-yl)propyl)benzonitrile] | 0.575 | 0.948
4 | CC(C(O)c1cc(Cl)cc(C#N)c1)N1C[C@@H](COc2ccc(S(C)(=O)=O)cc2)[C@H](C)C1 (single isomer, unassigned) [Compound 101, 3-chloro-5-((1S,2R or 1R,2S)-1-hydroxy-2-((3S,4S)-3-methyl-4-((4-(methylsulfonyl)phenoxy)methyl)pyrrolidin-1-yl)propyl)benzonitrile] | 0.765 | > 10
5 | C[C@@H]1CN(C(CO)Cc2cccc(Cl)c2)C[C@H]1COc1ccc(S(C)(=O)=O)cc1 (single isomer, unassigned) [Compound 116, (2R or 2S)-3-(3-chlorophenyl)-2-[(3S,4S)-3-[(4-methanesulfonylphenoxy)methyl]-4-methylpyrrolidin-1-yl]propan-1-ol] | 1.7 | > 10
6 | C[C@@H]1CN(C(CO)Cc2cccc(Cl)c2)C[C@H]1COc1ccc(S(C)(=O)=O)cc1 (single isomer, unassigned) [Compound 117, (2S or 2R)-3-(3-chlorophenyl)-2-[(3S,4S)-3-[(4-methanesulfonylphenoxy)methyl]-4-methylpyrrolidin-1-yl]propan-1-ol] | 0.483 | 0.755

Continued, in another order:

Row | AC50 [1] [µM] | Structure (SMILES) | EC50 [2] [µM]
7 | 0.744 | CC(C(O)c1cc(Cl)cc(C#N)c1)N1C[C@@H](COc2ccc(S(C)(=O)=O)cc2)[C@H](C)C1 (single isomer, unassigned) [Compound 102, 3-chloro-5-((1R,2R or 1S,2S)-1-hydroxy-2-((3S,4S)-3-methyl-4-((4-(methylsulfonyl)phenoxy)methyl)pyrrolidin-1-yl)propyl)benzonitrile] | > 10
8 | 0.905 | CC(C(O)c1cc(Cl)cc(C#N)c1)N1C[C@@H](COc2ccc(S(C)(=O)=O)cc2)[C@H](C)C1 (single isomer, unassigned) [Compound 103, 3-chloro-5-((1S,2S or 1R,2R)-1-hydroxy-2-((3S,4S)-3-methyl-4-((4-(methylsulfonyl)phenoxy)methyl)pyrrolidin-1-yl)propyl)benzonitrile] | 0.655
9 | > 10 | C[C@@H]1CN(CC(O)c2cccc(C#N)c2)C[C@H]1COc1ccc(S(C)(=O)=O)nc1 (single isomer, unassigned) [Compound 105, 3-[(1S or 1R)-1-hydroxy-2-[(3S,4S)-3-{[(6-methanesulfonylpyridin-3-yl)oxy]methyl}-4-methylpyrrolidin-1-yl]ethyl]benzonitrile] | > 10
10 | > 10 | C[C@@H]1CN(CC(O)c2cccc(C#N)c2)C[C@H]1COc1ccc(S(C)(=O)=O)nc1 (single isomer, unassigned) [Compound 106, 3-[(1R or 1S)-1-hydroxy-2-[(3S,4S)-3-{[(6-methanesulfonylpyridin-3-yl)oxy]methyl}-4-methylpyrrolidin-1-yl]ethyl]benzonitrile] | > 10
